Article PMC8198792, “Prediction of Anticancer Peptides with High Efficacy and Low Toxicity by Hybrid Model Based on 3D Structure of Peptides” (International Journal of Molecular Sciences, 2021)
Where two headings read alike, the source gives them in different places.

Experiments:
[1] = test system: many types of cells, including non-cancer cells; conditions: toxic peptides dataset TD2; class label 1 (toxic, positive set) or 0 (non-toxic AMP, negative set); ref SATPdb; cited from earlier work
[2] = test system: erythrocytes; conditions: cited from earlier work
Excerpt: Supplement ijms-22-05630-s001.zip/Hemloytic Peptides(seguence).xlsx, sheet "HD1" | column: Activity || Supplement ijms-22-05630-s001.zip/Hemloytic Peptides(seguence).xlsx, sheet "HD2" | column: Activity || Supplement ijms-22-05630-s001.zip/Hemloytic Peptides(seguence).xlsx, sheet "HD3" | column: Activity

[3] = test system: cancer cell lines; set-up: method as in 6 sources, ref CancerPPD [45] and SATPdb ||| ref CancerPPD/SATPdb ||| ref CancerPPD, SATPdb, Swissprot (PDB) ||| ref CancerPPD/SATPdb/Swissprot(PDB) ||| ref CancerPPD / SATPdb ||| ...; conditions: cited from earlier work
Excerpt: Supplement ijms-22-05630-s001.zip/ACPs(seguence).xlsx, sheet "D1" | column: Activity || Supplement ijms-22-05630-s001.zip/ACPs(seguence).xlsx, sheet "D2" | column: Activity || Supplement ijms-22-05630-s001.zip/ACPs(seguence).xlsx, sheet "D3" | column: Activity || (+ 2 further places)

[4] = test system: 2% sheep red blood cells (SRBC); assay: Hemolysis assay; type: cell-based; conditions: Triton X-100 0.1% (w/v), 2% SRBC, 37 °C, 1 h, absorbance 540 nm; printed once per peptide line
Protocol: The 2% sheep red blood cells (SRBC) were purchased from Nanjing Senbeijia Biological Technology Co., Ltd (Nangjing, China). A total of 4 mL of 2% SRBC was taken, rinsed twice with 4 mL of PBS by centrifugation for 5 min at 3000 rpm and the precipitates were resuspended in 4 mL of PBS. We added 100 μL of 2% SRBC to each well of the 96-well plate and then added 100 μL peptide solutions of different concentrations (2, 4, 8, 16, 32, 64, 128 and 256 μM) in triplicate at 37 °C for 1 h. 100 μL of PBS buffer and 100 uL of Triton X-100 0.1% (w/v) were mixed with SRBC as negative and positive controls, respectively. All samples were centrifuged at 3000 rpm for 5 min, 100 μL supernatant was collected and transferred to a new 96-well plate, and its absorbance was measured at 540 nm. The calculation formula of hemolysis rate is as follows. (5) % Hemolysis=absorbancesample-absorbancenegative/absorbancepositive-absorbancenegative×100

[5] = Hemolytic peptides dataset HD2, label 1 = hemolytic, 0 = non-hemolytic, ref Hemolytik/SATPdb
[6] = hemolytic peptides dataset HD3, 1 = hemolytic (positive set), 0 = non-hemolytic (negative set), labels taken from databases, ref Hemolytik/SATPdb
[7] = ACPs dataset D3 (sheet "D3"), label 1 = ACP, 0 = non-ACP, ref CancerPPD/SATPdb
[8] = ACPs dataset D4 (sheet "D4"), label 1 = ACP, 0 = non-ACP, ref CancerPPD / SATPdb
[9] = ACPs dataset D5, sheet "D5", label 1 = ACP, 0 = non-ACP, ref CancerPPD [45] and SATPdb
[10] = ACPs dataset D3 (supplement sheet "D3"), 1 = ACP, 0 = non-ACP, ref CancerPPD [45] and SATPdb

Substance | Activity [1] | Activity [2, 5] | Activity [2, 6] | Activity [3, 7] | Activity [3, 8] | Activity [3, 9] | Hemolytic effect on 2% sheep erythrocytes, Positive Control (Triton X-100 (0.1%)) [4] | Activity [2] | Activity ([3]; ACPs dataset D1, 1 = ACP (positive), 0 = non-ACP (negative), label taken from databases, ref CancerPPD [45] and SATPdb) | Activity ([3]; ACPs dataset D4 (sheet "D4"), label 1 = ACP (CancerPPD ID), 0 = non-ACP (non-anticancer AMP, SATPdb ID), ref CancerPPD [45] and SATPdb) | Activity [3, 10]
FVGAIAAALPHVISAIKNAL [satpdb12079] | 1 | 1 | 1 | 0 | 0 | 0 |  |  |  |  | 
Triton X-100 [reference compound] |  |  |  |  |  |  | + (The “+” symbol indicates that the hemolysis rate exceeds 10% when peptides concentration reaches 100 μM) |  |  |  | 
GLLGPLLKIAAKVGSNLL [satpdb10126] | 1 |  |  |  |  |  |  | 1 |  |  | 
FFGWLIRGAIHAGKAIHGLIHRRRH [satpdb10145] | 1 |  |  |  |  |  |  | 1 | 0 | 0 | 
ILGAILPLVSGLLSNKL [satpdb12884] | 0 |  |  | 0 | 0 | 0 |  |  |  |  | 
KLGFENFLVKALKTVMHVPTSPLL [satpdb10107] | 1 |  |  |  | 0 | 0 |  |  |  |  | 0
FLSTLWNAAKSIF [satpdb12345] | 1 |  |  | 0 | 0 | 0 |  |  |  |  | 
GLWSNIKTAGKEAAKAALKAAGKAALGAVTDAV [satpdb12078] | 0 |  |  | 0 | 0 | 0 |  |  |  |  | 
FIGAVAGLLSKIF [satpdb10850] | 1 |  |  |  | 0 | 0 |  |  |  |  | 0
VOLFPVOLFP [satpdb12868] | 0 |  |  | 0 | 0 | 0 |  |  |  |  | 
FASLLGKALKALAKQ [satpdb10678] | 0 |  |  |  | 0 | 0 |  |  |  |  | 0
GILDVAKTLVGKLRNVLGI [satpdb10523] | 0 |  |  |  | 0 | 0 |  |  |  |  | 0
GVWDWLKKTAKNVWNSDIVKQLKGKAINAAKNYVAEKIGATPS [satpdb11887] | 0 |  |  |  | 0 | 0 |  |  |  |  | 0
FLSLLPSLVSGAVSLVKIL [satpdb10512] | 0 |  |  |  | 0 | 0 |  |  |  |  | 0
AVLDILKDVGKGLLSHFMEKV [satpdb13844] | 0 |  |  | 0 | 0 | 0 |  |  |  |  | 
ILGPVIKTIGGVIGGLLKNL [satpdb10308] | 1 |  |  |  | 0 | 0 |  |  |  |  | 0
GMFTNMLKGIGKLAGQAALGAVKTLA [satpdb11616] | 0 |  |  |  | 0 | 0 |  |  |  |  | 0
ILPILGNLLNGLL [satpdb12015] | 1 |  |  | 0 | 0 | 0 |  |  |  |  | 
GLFSVLGSVAKHLLPHVAPIIAEKL [satpdb13391] | 0 |  |  | 0 | 0 | 0 |  |  |  |  | 
LIGPVLGLVGSALGGLLKKI [satpdb10453] | 1 |  |  |  | 0 | 0 |  |  |  |  | 0

Substance | Activity [1] | Activity [2, 5] | Activity [2, 6] | Activity [3, 7] | Activity [3, 8] | Activity [3, 9] | Hemolytic effect on 2% sheep erythrocytes, Positive Control (Triton X-100 (0.1%)) [4] | Activity [2] | Activity ([3]; ACPs dataset D1, 1 = ACP (positive), 0 = non-ACP (negative), label taken from databases, ref CancerPPD [45] and SATPdb) | Activity ([3]; ACPs dataset D4 (sheet "D4"), label 1 = ACP (CancerPPD ID), 0 = non-ACP (non-anticancer AMP, SATPdb ID), ref CancerPPD [45] and SATPdb) | Activity [3, 10]
LLSLVPHAINAVSAIAKHF [satpdb10338] | 0 |  |  |  | 0 | 0 |  |  |  |  | 0
SILPTIVSFLTKFL [satpdb10195] | 0 |  |  |  | 0 | 0 |  |  |  |  | 0
GWRLLLKKAEVKTVGKLALKHYL [satpdb14772] | 0 |  |  | 0 | 0 | 0 |  |  |  |  | 
KFGKIVGKVLKQLKKVSAVAKVAMKKG [satpdb11425] | 1 |  |  |  | 0 | 0 |  |  |  |  | 0
AMWKDVLKKIGTVALHAGKAALGAVADTISQ [satpdb14434] | 0 |  |  | 0 | 0 | 0 |  |  |  |  | 
IDWKKLLDAAKQIL [satpdb24876] | 1 | 0 | 0 |  |  |  |  |  |  |  | 
GVVTDLLKTAGKLLGNLFGSLSG [satpdb14110] | 1 |  |  | 0 | 0 | 0 |  |  |  |  | 
KWKSFIKKLTSAAKKVVTTAKPLISS [satpdb10912] | 0 |  |  |  | 0 | 0 |  |  |  |  | 0
GFGSLLGKALRLGANVL [satpdb12093] | 0 |  |  | 0 | 0 | 0 |  |  |  |  | 
GLWSTIKQKGKEAAIAAAKAAGQAVLNSASEAL [satpdb11971] | 0 |  |  | 0 | 0 | 0 |  |  |  |  | 
GFRDVLKGAAKAFVKTVAGHIAN [satpdb12067] | 0 |  |  | 0 | 0 | 0 |  |  |  |  | 
FLGALWNVAKSVF [satpdb13946] | 0 |  |  | 0 | 0 | 0 |  |  |  |  | 
NLLGSLLKTGLKVGSNLL [satpdb11204] | 1 |  |  |  | 0 | 0 |  |  |  |  | 0
ALALLOHALHOLALLAOHLAHOLALA [satpdb11016] | 0 |  |  |  |  |  |  |  |  |  | 0
GLLDALSGILGL [satpdb12939] | 0 |  |  | 0 | 0 | 0 |  |  |  |  | 
FKIKPGKVLDKFGKIVGKVLKQLKKVS [satpdb13509] | 1 |  |  | 0 | 0 | 0 |  |  |  |  | 
RGGRLCYCRPRFCVCVGR [satpdb12800] | 0 |  |  | 0 | 0 | 0 |  |  |  |  | 
GLWEKIKEKANELVSGIVEGVK [satpdb12905] | 0 |  |  | 0 | 0 | 0 |  |  |  |  | 
GLLSGILNTAGGLLGNLIGSLSN [satpdb13955] | 0 |  |  | 0 | 0 | 0 |  |  |  |  | 
IWSAIWSGIKGLL [satpdb12218] | 0 |  |  | 0 | 0 | 0 |  |  |  |  | 
